Reference: patent US20230233483A1, “COMPOUND AND METHOD FOR THE TREATMENT OF CORONAVIRUSES” (Apteeus, priority 2020, published 2023)

System: SARS-CoV-2 of lineage B1 containing the D614G mutation; SARS-CoV-2 of lineage B1.1.7
Assay type: cell-based

Question: For `CC(C)(C)CC(C)(C)c1ccc(O)c(Cc2ccc(Cl)cc2Cl)c1` [clofoctol, 2-(2,4-Dichlorobenzyl)-4-(1,1,3,3-tetramethylbutyl)phenol], which “Genomic replication of variants of SARS-CoV-2 (RT-qPCR)” value is on record?
Answer: inhibits the genomic replication of variants of SARS-CoV-2
